Patent publication US11774460B2, “Diagnostic or predictor of relapsing remitting multiple sclerosis” (Dignity Health, priority 2016, dated 2023)

Test system: Factor VIII activity
Test: Factor VIII activity in blood of multiple sclerosis patients under treatment
Format: in vivo, human
Conditions: MS patient with elevated Factor VIII activity during exacerbation
Description: In various embodiments, disclosed herein is a method of detecting or predicting a relapse of multiple sclerosis in an individual afflicted with a form of multiple sclerosis, comprising: (a) providing a blood sample of the individual; (b) testing the blood sample to determine a protein activity or protein level, wherein the protein is Factor VIII, von Willebrand factor, or Protein C; and (c) detecting a relapse of multiple sclerosis in the individual if the protein activity or protein level is elevated compared to the protein activity or protein level in an individual not afflicted with the form of multiple sclerosis or the patient's own lowest baseline value as a form of a control. In some of these embodiments, the form of multiple sclerosis is relapsing-remitting multiple sclerosis with or without secondary progression. In some embodiments, the multiple sclerosis in the individual is in remission. In some embodiments, the blood sample test to determine the protein activity or protein level is performed simultaneously with other blood tests, such as, partial thromboplastin time (PTT) test, International Normalized Ratio (INR) test, and erythrocyte sedimentation rate (ESR) test. In some of these embodiments, the blood sample tests are performed at least once per month during the treatment period and/or monitoring period of multiple sclerosis. […]

## TYSABRI: disease-modifying therapy for multiple sclerosis named only by trade name
  Factor VIII activity after treatment: returned to normal
